Results: patent US7488598B2, “Mutant purine nucleoside phosphorylase proteins and cellular delivery thereof” (priority 2001, dated 2009)

Key:
[1] = target: wild-type E. coli PNP (Escherichia coli, UniProt P0ABP8); conditions: Table III; 100 μM substrate; HPLC; average of separate experiments
[2] = target: E. coli PNP mutant M65V (Escherichia coli, UniProt P0ABP8, M65V); conditions: for activity of mutant M65V PNP compared with wild-type PNP (in words): Example 16 analysis; for M65V, crude extract, rate of cleavage / M65V, pure enzyme, rate of cleavage: Table III, 100 μM substrate, HPLC, average of separate experiments
Chain of E. coli PNP mutant M65V (P0ABP8 whole entry M65V): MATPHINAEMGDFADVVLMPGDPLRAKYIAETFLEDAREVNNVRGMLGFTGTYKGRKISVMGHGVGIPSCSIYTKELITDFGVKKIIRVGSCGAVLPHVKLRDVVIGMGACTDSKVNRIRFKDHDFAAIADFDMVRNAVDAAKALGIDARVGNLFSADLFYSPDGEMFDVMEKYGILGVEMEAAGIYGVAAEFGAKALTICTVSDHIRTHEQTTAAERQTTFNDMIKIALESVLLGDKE

Chain of wild-type E. coli PNP (P0ABP8 whole entry): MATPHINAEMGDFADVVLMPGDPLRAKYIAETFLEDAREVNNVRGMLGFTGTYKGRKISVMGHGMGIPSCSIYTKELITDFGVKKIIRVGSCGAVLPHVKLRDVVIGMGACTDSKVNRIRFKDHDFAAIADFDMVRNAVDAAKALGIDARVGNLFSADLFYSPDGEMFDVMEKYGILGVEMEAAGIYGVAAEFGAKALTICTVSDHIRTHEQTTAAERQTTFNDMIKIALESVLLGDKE

Row | Structure (SMILES) | Wild type, pure enzyme, rate of cleavage [1] | activity of mutant M65V PNP compared with wild-type PNP (in words) [2] | M65V, crude extract, rate of cleavage [2] | M65V, pure enzyme, rate of cleavage [2] | Activity of M65V mutant greater than wild-type PNP ([2]; M65V versus wild-type PNP) [fold]
1 | C[C@H](O)[C@H]1O[C@@H](n2cnc3c(N)nc(F)nc32)[C@H](O)[C@@H]1O [2-Fluoro-9-(6-deoxy-α-L-talofuranosyl)-9H-purin-6-amine] | 26,000 nmole/mg/hr | more activity | 1,110,000 nmole/mg/hr |  | 
2 | C[C@@H](O)[C@H]1O[C@@H](n2cnc3c(N)nc(F)nc32)[C@H](O)[C@@H]1O [2-Fluoro-9-(6-deoxy-β-D-allofuranosyl)-9H-purin-6-amine] | 2,600 nmole/mg/hr |  | 93,000 nmole/mg/hr |  | 
3 | CO[C@@H]1[C@H](O)[C@@H](CO)O[C@H]1n1cnc2c(N)ncnc21 [2′-O-methyl-adenosine] | — (No detectable activity at 100 μg/ml (limit of detection approximately 1 nmole/mg/hr)) |  | — (No detectable activity at 100 μg/ml (limit of detection approximately 1 nmole/mg/hr)) |  | 
4 | Nc1ncnc2c1ncn2[C@@H]1O[C@H](CO)C[C@H]1O [3′-deoxyadenosine] | — (No detectable activity at 100 μg/ml (limit of detection approximately 1 nmole/mg/hr)) |  | — (No detectable activity at 100 μg/ml (limit of detection approximately 1 nmole/mg/hr)) |  | 
5 | CSC[C@H]1O[C@@H](n2cnc3c(N)ncnc32)[C@H](O)[C@@H]1O [5′-deoxy-5′-methylthio-adenosine] | — (No detectable activity at 100 μg/ml (limit of detection approximately 1 nmole/mg/hr)) |  |  | 690 nmol/mg/h | 
6 | Cc1ncnc2c1ncn2[C@@H]1O[C@H]([C@@H](C)O)[C@@H](O)[C@H]1O [5′methyl(allo)-MeP-R, 9-(6-deoxy-β-D-allofuranosyl)-6-methylpurine] | 47 nmol/mg/h |  | 316 nmol/mg/h |  | 
7 | Cc1ncnc2c1ncn2[C@@H]1O[C@@H](CI)[C@@H](O)[C@H]1O [6-Methyl-9-(5-deoxy-5-iodo-α-L-lyxofuranosyl)purine] | — (No detectable activity at 100 μg/ml (limit of detection approximately 1 nmole/mg/hr)) |  | 4 nmol/mg/h |  | 
8 | Cc1ncnc2c1ncn2[C@@H]1O[C@H](CI)[C@@H](O)[C@H]1O [6-Methyl-9-(5-deoxy-5-iodo-β-D-ribofuranosyl)purine] | — (No detectable activity at 100 μg/ml (limit of detection approximately 1 nmole/mg/hr)) |  |  | — (No detectable activity at 100 μg/ml (limit of detection approximately 1 nmole/mg/hr)) | 
9 | Cc1ncnc2c1ncn2[C@@H]1O[C@@H](C)[C@@H](O)[C@H]1O [6-Methyl-9-(5-deoxy-α-L-lyxofuranosyl)purine] | 20 nmol/mg/h |  | 3,500 nmole/mg/hr |  | 
10 | Cc1ncnc2c1ncn2[C@@H]1O[C@H](C)[C@@H](O)[C@H]1O [6-Methyl-9-(5-deoxy-β-D-ribofuranosyl)purine] | 406 nmol/mg/h |  | 1800 nmol/mg/h |  | 
11 | Cc1ncnc2ncn([C@H]3C[C@H](O)[C@@H](CO)O3)c12 [7-(2-deoxy-β-D-ribofuranosyl)-6-methylpurine] | — (No detectable activity at 100 μg/ml (limit of detection approximately 1 nmole/mg/hr)) |  | — (No detectable activity at 100 μg/ml (limit of detection approximately 1 nmole/mg/hr)) |  | 
12 | Cc1ncnc2ncn([C@@H]3O[C@@H](CO)[C@@H](O)[C@H]3O)c12 [7-(α-L-lyxofuranosyl)-6-methylpurine] | — (No detectable activity at 100 μg/ml (limit of detection approximately 1 nmole/mg/hr)) |  |  | — (No detectable activity at 100 μg/ml (limit of detection approximately 1 nmole/mg/hr)) | 
13 | Nc1nc2c(ncn2[C@@H]2C[C@H](CO)[C@@H](CO)O2)c(=S)[nH]1 [9-(2,3-dideoxy-3-hydroxymethyl-α-D-ribofuranosyl)-6-thioguanine] | 242 nmol/mg/h |  | — (No detectable activity at 100 μg/ml (limit of detection approximately 1 nmole/mg/hr)) |  | 
14 | Cc1ncnc2c1ncn2[C@@H]1C[C@H](O)[C@@H](CO)O1 [9-(2-deoxy-α-D-ribofuranosyl)-6-methylpurine] | — (No detectable activity at 100 μg/ml (limit of detection approximately 1 nmole/mg/hr)) |  | — (No detectable activity at 100 μg/ml (limit of detection approximately 1 nmole/mg/hr)) |  | 
15 | Nc1nc(Cl)nc2c1ncn2[C@H]1C[C@@H](O)[C@H](CO)O1 [9-(2-deoxy-α-L-ribofuranosyl)-2-chloroadenine] | — (No detectable activity at 100 μg/ml (limit of detection approximately 1 nmole/mg/hr)) |  | — (No detectable activity at 100 μg/ml (limit of detection approximately 1 nmole/mg/hr)) |  | 
16 | Nc1nc(Cl)nc2c1ncn2[C@@H]1C[C@@H](O)[C@H](CO)O1 [9-(2-deoxy-β-L-ribofuranosyl)-2-chloroadenine] | — (No detectable activity at 100 μg/ml (limit of detection approximately 1 nmole/mg/hr)) |  | — (No detectable activity at 100 μg/ml (limit of detection approximately 1 nmole/mg/hr)) |  | 

Row | Structure (SMILES) | Wild type, pure enzyme, rate of cleavage [1] | activity of mutant M65V PNP compared with wild-type PNP (in words) [2] | M65V, crude extract, rate of cleavage [2] | M65V, pure enzyme, rate of cleavage [2] | Activity of M65V mutant greater than wild-type PNP ([2]; M65V versus wild-type PNP) [fold]
17 | Cc1ncnc2c1ncn2[C@@H]1O[C@H](C(C)(C)O)[C@@H](O)[C@H]1O [9-(5,5-di-C-methyl-β-D-ribofuranosyl)-6-methylpurine] | — (No detectable activity at 100 μg/ml (limit of detection approximately 1 nmole/mg/hr)) |  |  | 230 nmol/mg/h | 
18 | Nc1nc(F)nc2c1ncn2[C@@H]1O[C@H](CI)[C@@H](O)[C@H]1O [9-(5-deoxy-5-iodo-β-D-ribofuranosyl)-2-fluoroadenine] | 13 nmol/mg/h |  |  | 490 nmol/mg/h | 
19 | CSC[C@H]1O[C@@H](n2cnc3c(N)nc(F)nc32)[C@H](O)[C@@H]1O [9-(5-deoxy-5-methylthio-β-D-ribofuranosyl)-2-fluoroadenine] | 13 nmol/mg/h |  |  | 2500 nmol/mg/h | 
20 | Cc1ncnc2c1ncn2[C@@H]1O[C@H](CSc2ccccc2)[C@@H](O)[C@H]1O [9-(5-deoxy-5-phenylthio-β-D-ribofuranosyl)-6-methylpurine] | — (No detectable activity at 100 μg/ml (limit of detection approximately 1 nmole/mg/hr)) |  | — (No detectable activity at 100 μg/ml (limit of detection approximately 1 nmole/mg/hr)) |  | 
21 | C#C[C@@H](O)[C@H]1O[C@@H](n2cnc3c(C)ncnc32)[C@H](O)[C@@H]1O [9-(6,7-dideoxy-α-L-talo/β-D-allo-hept-6-ynofuranosyl)-6-methylpurine] | — (No detectable activity at 100 μg/ml (limit of detection approximately 1 nmole/mg/hr)) |  | 119 nmol/mg/h |  | 
22 | Nc1ncnc2c1ncn2[C@H]1O[C@H](CO)[C@@H](O)[C@@H]1O [9-(α-D-arabinofuranosyl)-adenine] | — (No detectable activity at 100 μg/ml (limit of detection approximately 1 nmole/mg/hr)) |  | — (No detectable activity at 100 μg/ml (limit of detection approximately 1 nmole/mg/hr)) |  | 
23 | Nc1nc(F)nc2c1ncn2[C@@H]1O[C@@H](CO)[C@@H](O)[C@H]1O [9-(α-L-lyxofuranosyl)-2-fluoroadenine, 2-Fluoro-9-(α-L-lyxofuranosyl)-9H-purin-6-amine] | 7,800 nmole/mg/hr |  | 222,000 nmole/mg/hr |  | 
24 | Cc1ncnc2c1ncn2[C@@H]1O[C@@H](CO)[C@@H](O)[C@H]1O [9-(α-L-lyxofuranosyl)-6-methylpurine, 6-Methyl-9-α-L-lyxofuranosylpurine] | 218 nmol/mg/h | more activity |  | 9,600 nmole/mg/hr | 
25 | Nc1ncnc2c1ncn2[C@@H]1O[C@@H](CO)[C@@H](O)[C@H]1O [9-(α-L-lyxofuranosyl)-adenine] | 3,690 nmole/mg/hr | more activity | 54,000 nmole/mg/hr |  | 6
26 | Nc1ncnc2c1ncn2[C@@H]1O[C@H](CO)[C@@H](O)[C@@H](O)[C@H]1O [9-(β-D-allopyranosyl)-adenine] | — (No detectable activity at 100 μg/ml (limit of detection approximately 1 nmole/mg/hr)) |  | — (No detectable activity at 100 μg/ml (limit of detection approximately 1 nmole/mg/hr)) |  | 
27 | Cc1ncnc2c1ncn2[C@@H]1O[C@H](CO)[C@@H](O)[C@@H]1O [9-(β-D-arabinofuranosyl)-6-methylpurine] | 14 nmol/mg/h |  | 3 nmol/mg/h |  | 
28 | Nc1ncnc2c1ncn2[C@]1(CO)OC[C@@H](O)[C@@H](O)[C@@H]1O [9-(β-D-fructopyranosyl)-adenine] | — (No detectable activity at 100 μg/ml (limit of detection approximately 1 nmole/mg/hr)) |  | — (No detectable activity at 100 μg/ml (limit of detection approximately 1 nmole/mg/hr)) |  | 
29 | Nc1ncnc2c1ncn2[C@@H]1O[C@H](CO)[C@H](O)[C@@H]1O [9-(β-D-lyxofuranosyl)-adenine] | — (No detectable activity at 100 μg/ml (limit of detection approximately 1 nmole/mg/hr)) |  | — (No detectable activity at 100 μg/ml (limit of detection approximately 1 nmole/mg/hr)) |  | 
30 | OC[C@H]1O[C@@H](n2cnc3c(CF)ncnc32)[C@H](O)[C@@H]1O [9-(β-D-ribofuranosyl)-6-fluoromethylpurine] | 56,000 nmole/mg/hr |  |  | 211,000 nmole/mg/hr | 
31 | Nc1nc2c(ncn2[C@@H]2O[C@H](CO)[C@@H](O)[C@H]2O)c(=O)[nH]1 [guanosine] |  |  |  | 778,000 nmole/mg/hr | 
